In article PMC12469503, “Exploring the Antimicrobial and Antiviral Properties of Cryptic Peptides from Human Fibrinogen” (International Journal of Molecular Sciences, 2025):
Read-outs that look alike come from different tables or passages of the source. Ends that are not written are not given here.

Experiments:
[1] = tested on: Staphylococcus aureus ATCC 6538P; details: for MBC/MIC: Table 2, Staphylococcus aureus ATCC 6538P
[2] = tested on: Klebsiella pneumonia ATCC 700603; details: for MIC K. pne.: ATCC 700603
[3] = tested on: Acinetobacter baumanii ATCC 17878
[4] = tested on: HCoV-229E; details: co-treatment assay, Vero cells, from 50 μM peptide
[5] = tested on: Salmonella enteriditis 706 RIVM
[6] = tested on: Escherichia coli ATCC 25922
[7] = tested on: Pseudomonas aeruginosa PA14
[8] = type: physicochemical
Excerpt: The six peptides were produced in the recombinant form by using a previously described strategy that exploit the frog protein onconase (ONC) as a carrier to drive the peptide to inclusion bodies. The fusion proteins were expressed in Escherichia coli strain BL21DE3, using the pET22b(+) vector and named: ONC-DCless-H6-(P)FIBα-GVV27, ONC-DCless-H6-(P)FIBα-SFR22, ONC-DCless-H6-(P)FIBβ-GVV28, ONC-DCless-H6-(P)FIBβ-NWK23, ONC-DCless-H6-(P)FIBγ-GII30, ONC-DCless-H6-(P)FIBγ-TWK25 (nucleotide and amino acid sequences are reported in Supplementary Figure S1). […] Peptides were released by hydrolysis of an acidic labile “Asp-Pro” sequence leading to recombinant peptides endowed with an additional Pro residue at the N-terminus. Thus, the recombinant forms of these peptides are herein named (P)FIBα-GVV27, (P)FIBα-SFR22, (P)FIBβ-GVV28, (P)FIBβ-NWK23, (P)FIBγ-GII30, (P)FIBγ-TWK25. Hydrolysis efficiencies of 95% were estimated for all the recombinant proteins (Supplementary Figure S3). To purify the recombinant peptides from the hydrolysis mixtures, the carrier and the uncleaved fusion protein were selectively precipitated by increasing the pH to 7 exploiting the fact that ONC is insoluble at pH higher than 5, whereas most AMPs are soluble also at neutral pH. […] Therefore, purification of (P)FIBα-SFR22, (P)FIBα-GVV27, (P)FIBβ-NWK23 and (P)FIBγ-TWK25 was first performed by selective precipitation, to remove the carrier and the uncleaved fusion protein, followed by Reverse Phase High-Performance Liquid Chromatography (RP-HPLC) on a C18 column, whereas purification of (P)FIBβ-GVV28 and (P)FIBγ-GII30 was performed directly by RP-HPLC omitting the selective precipitation step. Final yields of all recombinant peptides ranged from approximately 6 to 12 mg per liter of LB culture. Peptide purity, as determined by RP-HPLC, typically varied between 95% and 99% (Supplementary Figure S4).
Peptides (P)FIBα-GVV27, (P)FIBα-SFR22, (P)FIBβ-NWK23 and (P)FIBγ-TWK25 were separated from the carrier and the uncleaved fusion proteins as previously described. The hydrolysis mixture was neutralized to pH 7–7.2 by adding 1 M NH3 and incubated for 1 h at 25 °C under nitrogen atmosphere in a water bath. […] Supernatant and insoluble fraction were analyzed by SDS-PAGE. Concentration of the peptide into the soluble fraction was determined by spectrophotometric analyses using extinction coefficients (Supplementary Table S1) calculated by the ProtParam tool. After the selective precipitation step, purification of the peptide was performed by RP-HPLC. The linear gradients used are listed in Supplementary Table S2. Purification of (P)FIBβ-GVV28 and (P)FIBγ-GII30 was performed directly by RP-HPLC, omitting the selective precipitation step. Purified peptides were lyophilized and dissolved in deionized water. Samples were stored at −80 °C under nitrogen atmosphere. Purity of peptides was evaluated by RP-HPLC on Europa Protein 300 C18 column (5 μm, 25 × 1) using the linear gradients listed in Supplementary Table S2. The identity of the peptides was confirmed by mass spectrometry.

[9] = tested on: Pseudomonas aeruginosa PAO1; details: for MIC: Table 2, Pseudomonas aeruginosa PAO1
[10] = tested on: Pseudomonas aeruginosa PAO1
[11] = tested on: P. aeruginosa PAO1 biofilm; test: Antibiofilm attachment assay, confocal microscopy; details: peptide 20 µM added with bacteria, stained after 4 h, Live/Dead BacLight, three independent experiments, t-test vs control
[12] = tested on: Enterococcus faecalis ATCC 29212
[13] = tested on: Staphylococcus aureus ATCC 6538P; details: ATCC 6538
[14] = tested on: Salmonella typhimurium ATCC 14028; test: MIC, broth microdilution; type: cell-based; details: Table 1; for MIC S. typ.: broth microdilution, Nutrient Broth 0.5×, overnight 37 °C, minimum of three independent experiments
Experimental: MIC values were determined on Gram-positive and Gram-negative bacteria by the broth microdilution method for antimicrobial peptides previously described [33, 89] with minor modifications.
Bacterial strains were grown in Luria-Bertani (LB) medium overnight at 37 °C and then diluted in Nutrient Broth at a final concentration of ~5 × 10^5 CFU/mL per well. Twofold serial dilutions of peptides were carried out in the test wells to obtain concentrations ranging from 50 μM to 0.05 μM. Plates were incubated overnight at 37 °C.
MIC value was defined as the lowest concentration at which growth was inhibited. Three independent experiments were performed for each MIC value.

[15] = tested on: Pseudomonas aeruginosa RP73 (clinical isolate)
[16] = Table 1, broth microdilution, Nutrient Broth 0.5×, overnight 37 °C, minimum of three independent experiments
[17] = Table 1, broth microdilution, Nutrient Broth 0.5×, ~5 × 10^5 CFU/mL, overnight 37 °C, minimum of three independent experiments
[18] = Table 2, Pseudomonas aeruginosa PAO1
[19] = Table 1, control antibiotic, twofold dilutions from 64 µg/mL

| Compound | MIC K. pne. [2] [µM] | MIC A. bau. [3, 16] [µM] | MIC S. ent. [5] [µM] | MIC PA14 ([7]; PA14) [µM] | MIC PAO1 [9] [µM] | MBC/MIC [10, 18] | MIC S. aur. [13] [µM] | MIC S. typ. [14] [µM] | MIC RP73 ([15]; RP73 (clinical isolate)) [µM] | MIC E. coli ([6]; ATCC 25922) [µM] | MIC A. bau. ([3]; ATCC 17878) [µM] | MIC E. fae. ([12]; ATCC 29212) [µM] | also measured |
| --- | --- | --- | --- | --- | --- | --- | --- | --- | --- | --- | --- | --- | --- |
| H-PNWKGSWYSMRKMSMKIRPFFPQQ [(P)FIBβ-NWK23] | 25 | 6.25 | 12.5 | 3.12 | 6.25 | 1 | 3.12 | 6.25 | 3.12 |  |  |  | MBC ([1]; ATCC 6538): 3.12 µM; MBC/MIC [1]: 1; antiviral activity against HCoV-229E [4]: absence of efficacy; MIC E. coli [6, 17]: 6.25 µM; solubility / aggregation at pH 7 [8]: soluble at pH 7; MBC ([10]; PAO1): 6.25 µM; fluorescence signal of SYTO 9 (live cells), attachment assay [11]: lower, not significant reduction; MIC E. fae. [12, 16]: 6.25 µM |
| Polymyxin B [reference compound] |  |  |  |  |  |  |  |  |  |  |  |  | MIC K. pne. (antibiotics) [2, 19]: 0.5 µg/mL; MIC A. bau. (antibiotics) [3, 19]: 0.5 µg/mL; MIC S. ent. (antibiotics) [5, 19]: 0.5 µg/mL; MIC E. coli (antibiotics) [6, 19]: 0.5 µg/mL; MIC PA14 (antibiotics) [7, 19]: 0.25 µg/mL; MIC PAO1 (antibiotics) [9, 19]: 0.25 µg/mL; MIC S. typ. (antibiotics) ([14]; control antibiotic, twofold dilutions from 64 µg/mL): 0.12 µg/mL; MIC RP73 (antibiotics) [15, 19]: 0.12 µg/mL |
| GVVWVSFRGADYSLRAVRMKIRPLVTQ [FIBα-GVV27] | 25 | 6.25 | 12.5 |  | 6.25 |  | 6.25 | 6.25 | 3.12 | 12.5 |  |  | MIC PA14 [7, 16]: 6.25 µM; MIC E. fae. [12, 16]: 6.25 µM |
| Colistin [reference compound] |  |  |  |  |  | 1 |  |  |  |  |  |  | MIC ([9]; antibiotics): 0.5 µg/mL; MBC ([10]; Table 2, Pseudomonas aeruginosa PAO1, antibiotics): 0.5 µg/mL |
| SFRGADYSLRAVRMKIRPLVTQ [FIBα-SFR22] | >50 |  | 50 | 12.5 | 12.5 |  | 12.5 | 50 | 12.5 | 25 | 25 | 6.25 |  |
| GVVWMNWKGSWYSMRKMSMKIRPFFPQQ [FIBβ-GVV28] | 25 |  |  | 6.25 | 6.25 |  | 3.12 | 12.5 | 6.25 | 6.25 | 6.25 | 6.25 | MIC S. ent. [5, 16]: 12.5 µM |
| CC[C@H](C)[C@H](NC(=O)[C@H](CCCCN)NC(=O)[C@H](CCC(=O)O)NC(=O)[C@H](CCCCN)NC(=O)[C@H](CO)NC(=O)[C@H](CCCCN)NC(=O)[C@H](CCCNC(=N)N)NC(=O)[C@H](Cc1ccccc1)NC(=O)[C@H](Cc1ccccc1)NC(=O)[C@H](CC(=O)O)NC(=O)CNC(=O)[C@H](CC(C)C)NC(=O)[C@@H](N)CC(C)C)C(=O)NCC(=O)N[C@@H](CCCCN)C(=O)N[C@@H](CCC(=O)O)C(=O)N[C@@H](Cc1ccccc1)C(=O)N[C@@H](CCCCN)C(=O)N[C@@H](CCCNC(=N)N)C(=O)N[C@H](C(=O)N[C@H](C(=O)N[C@@H](CCC(N)=O)C(=O)N[C@@H](CCCNC(=N)N)C(=O)N[C@H](C(=O)N[C@@H](CCCCN)C(=O)N[C@@H](CC(=O)O)C(=O)N[C@@H](Cc1ccccc1)C(=O)N[C@@H](CC(C)C)C(=O)N[C@@H](CCCNC(=N)N)C(=O)N[C@@H](CC(N)=O)C(=O)N[C@@H](CC(C)C)C(=O)N[C@H](C(=O)N1CCC[C@H]1C(=O)N[C@@H](CCCNC(=N)N)C(=O)N[C@H](C(=O)N[C@@H](CCC(=O)O)C(=O)N[C@@H](CO)C(=O)O)[C@@H](C)O)C(C)C)[C@@H](C)CC)C(C)C)[C@@H](C)CC [LL37, reference compound] |  |  |  |  |  |  |  |  |  |  |  |  | MIC ([9]; minimum of three independent experiments): 1.56 µM; MBC ([10]; Table 2, Pseudomonas aeruginosa PAO1, […], subculture on LB agar): 1.56 µM |
| TWKTRWYSMKKTTMKIIPFNRLTIG [FIBγ-TWK25] | 6.25 | 3.12 | 6.25 |  | 3.12 |  | 1.56 | 3.12 |  |  |  | 6.25 | MIC E. coli [6, 17]: 3.12 µM; MIC PA14 [7, 16]: 3.12 µM; MIC RP73 [15, 16]: 3.12 µM |
| NC[C@H]1O[C@H](O[C@H]2[C@H](O)[C@@H](O[C@H]3O[C@H](CO)[C@@H](O)[C@H](N)[C@H]3O)[C@H](N)C[C@@H]2N)[C@H](N)C[C@@H]1O [Tobramycin] |  |  |  |  |  | 2 |  |  |  |  |  |  | MBC/MIC [1]: 2 |
| NWKGSWYSMRKMSMKIRPFFPQQ [FIBβ-NWK23] | 25 |  |  | 3.12 | 6.25 |  | 3.12 | 12.5 | 6.25 | 6.25 | 6.25 | 6.25 | MIC S. ent. [5, 16]: 12.5 µM |
